# Measured values published in patent US11384099B2, “Pyrazolopyridinone compounds” (Janssen Pharmaceutica NV, priority 2017, dated 2022).
# Where a name gives a salt, the structure may show the parent alone.
# Assays:
# [1] = target: T1, human FGFR3 wild type enzyme (cytoplasmic domain) (Homo sapiens, UniProt P22607); experiment: FGFR3 wild type mobility shift assay (enzymatic assay, Caliper); format: biochemical; details: 75 μM ATP, 50 minutes at 30° C.
# T1 construct: human FGFR3 wild type enzyme (cytoplasmic domain, from Cama Biosciences); purchased Carna Biosciences
# T1 sequence (P22607 397-806 limits assumed): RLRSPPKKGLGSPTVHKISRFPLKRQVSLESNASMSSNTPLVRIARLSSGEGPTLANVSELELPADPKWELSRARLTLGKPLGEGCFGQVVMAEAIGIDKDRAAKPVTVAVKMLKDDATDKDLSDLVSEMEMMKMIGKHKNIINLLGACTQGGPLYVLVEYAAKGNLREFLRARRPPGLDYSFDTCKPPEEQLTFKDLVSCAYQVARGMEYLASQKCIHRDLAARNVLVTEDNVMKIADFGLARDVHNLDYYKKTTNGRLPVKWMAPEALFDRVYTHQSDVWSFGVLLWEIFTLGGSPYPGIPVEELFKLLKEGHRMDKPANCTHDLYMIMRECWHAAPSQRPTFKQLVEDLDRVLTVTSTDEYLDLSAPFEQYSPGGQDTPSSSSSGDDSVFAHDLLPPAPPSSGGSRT
# Experimental: FGFR3 Wild Type Mobility Shift Assay (Enzymatic Assay)
# (§1) In a final reaction volume of 25 μL, 0.04 ng/μL human FGFR3 wild type enzyme (cytoplasmic domain, from Cama Biosciences) was incubated with 75 μM ATP, 1 μM FL-peptide 30 substrate and 250 nL of testing compound (1% DMSO final) in assay buffer (100 mM HEPES pH 7.4, 10 mM MgCl2, 0.003% Brij35, 1 mM DTT). After incubation for 50 minutes at 30° C. the reaction was stopped with 10 μL of 0.5M EDTA pH 8.0, and then L of reaction mixture was transferred to reading plate and measured on Caliper EZ reader II.
# [2] = target: T2, human FGFR3 V555M enzyme (cytoplasmic domain carrying V555M mutation) (Homo sapiens, UniProt P22607, V555M); experiment: FGFR3 V555M mobility shift assay (enzymatic assay, Caliper); format: biochemical; details: 30 μM ATP, 45 minutes at 30° C.
# T2 construct: cytoplasmic domain carrying V555M mutation, from Carna Biosciences; purchased Carna Biosciences
# T2 sequence (P22607 397-806 V555M limits assumed): as the sequence (P22607 397-806 limits assumed) above, with V159M counted along it
# Experimental: FGFR3 V555M Mobility Shift Assay (Enzymatic Assay)
# as §1, with “FGFR3 V555M” for “FGFR3 wild type”, “(cytoplasmic domain carrying V555M mutation,” for “(cytoplasmic domain,”, “from Carna” for “from Cama”, “with 30” for “with 75”, “for 45” for “for 50”
# [3] = tested on: NIH/3T3 cells transfected with control vector (MOCK); experiment: NIH/3T3 mock cell proliferation assay (CTG, counter assay); format: cell-based; details: Mus musculus, NIH3T3; 72-hr incubation, CellTiter Glo; counter assay for general toxicity
# Experimental: NIH/3T3 Mock Cell Proliferation Assay
# In day 1, 90 μL of cell suspension (NIH/3T3 cells transfected with the same control vector as in the above two proliferation assays) (total 30,000 cells per well in growth medium (DMEM containing 1% Glutamax, 10% FBS and 1% Pen/Strep)) was seeded in a 96-well plate and then incubated overnight at 37° C. and 5% CO2. In day 2, 10 μL of growth medium containing 10-fold stock solution of testing compound was added into cell cultures (9 dose points with 3× serial dilution, starting with 30 μM, 0.3% DMSO final). After 72-hr incubation at 37° C. and 5% CO2, in day 5 a volume of 50 μL CellTiter Glo (CTG) reagent was added into cell-containing 96-well plate and the plate was incubated at room temperature for 10 minutes before RLUs (relative light unit) were measured on a microplate reader with luminescence detection module. The RLU value was normalized to survival % and concentration-response curve was plotted using Prism to calculate IC50 (M), pIC50 (−log IC50) and HillSlope value.
Structure (SMILES),IC50 [1] [nM],IC50 [2] [nM],IC50 [3] [nM]
"COCC(Nc1c(-c2nc3ccc(OC)cc3[nH]2)c(=O)[nH]c2cn(C)nc12)c1ncccn1 (single isomer, unassigned) [Compound 12, (S*)-7-((2-methoxy-1-(pyrimidin-2-yl)ethyl)amino)-6-(6-methoxy-1H-benzo[d]imidazol-2-yl)-2-methyl-2H-pyrazolo[4,3-b]pyridin-5 (4H)-one]",18,4.25,1500
"CCC(Nc1c(-c2nc3ccc(OC)cc3[nH]2)c(=O)[nH]c2cn(C)nc12)c1ncccn1 (single isomer, unassigned) [Compound 17, (R*)-6-(6-Methoxy-1H-benzo[d]imidazol-2-yl)-2-methyl-7-((1-(pyrimidin-2-yl)propyl)-amino)-2H-pyrazolo[4,3-b]pyridin-5 (4H)-one]",4.87,0.957,959
"COc1cc2[nH]c(-c3c(NC(c4ncccn4)C(C)C)c4nn(C)cc4[nH]c3=O)nc2cn1 (single isomer, unassigned) [Compound 18, (S*)-6-(6-methoxy-1H-imidazo[4,5-c]pyridin-2-yl)-2-methyl-7-((2-methyl-1-(pyrimidin-2-yl)propyl)amino)-2H-pyrazolo[4,3-b]pyridin-5 (4H)-one]",8.51,1.69,3120
"CC(C)[C@H](Nc1c(-c2nc3ncc(N(C)C)cc3[nH]2)c(=O)[nH]c2cn(C)nc12)c1ncccn1 (single isomer, unassigned) [Compound 23, (S*)-6-(6-(dimethylamino)-1H-imidazo[4,5-b]pyridin-2-yl)-2-methyl-7-((2-methyl-1-(pyrimidin-2-yl)propyl)amino)-2H-pyrazolo[4,3-b]pyridin-5 (4H)-one 0.14 formate]",3.52,0.401,943
"COc1cc2nc(-c3c(N[C@H](c4ncccn4)C(C)C)c4nn(C)cc4[nH]c3=O)[nH]c2cc1OC (single isomer, unassigned) [Compound 27, (S*)-6-(5,6-dimethoxy-H-benzo[d]imidazol-2-yl)-2-methyl-7-((2-methyl-1-(pyrimidin-2-yl)propyl)amino)-2H-pyrazolo[4,3-b]pyridin-5 (4H)-one]",–,–,722
"COc1cnc2nc(-c3c(NC(c4ncccn4)C(C)C)c4nn(C)cc4[nH]c3=O)[nH]c2c1 (single isomer, unassigned) [Compound 40, (S*)-6-(6-methoxy-1H-imidazo[4,5-b]pyridin-2-yl)-2-methyl-7-((2-methyl-1-(pyrimidin-2-yl)propyl)amino)-2,4-dihydro-5H-pyrazolo[4,3-b]pyridin-5-one]",5.93,0.743,1740
"CCn1cc2[nH]c(=O)c(-c3nc4ccc(OC)cc4[nH]3)c(N[C@@H](C)c3ncccn3)c2n1 [Compound 4, (S)-2-ethyl-6-(6-methoxy-1H-benzo[d]imidazol-2-yl)-7-((1-(pyrimidin-2-yl)ethyl)amino)-2H-pyrazolo[4,3-b]pyridin-5 (4H)-one]",3.36,0.998,735
"CC[C@H](Nc1c(-c2nc3cnc(N(C)C)cc3[nH]2)c(=O)[nH]c2cn(C)nc12)c1ncccn1 [Compound 22, (S)-6-(6-(dimethylamino)-1H-imidazo[4,5-c]pyridin-2-yl)-2-methyl-7-((1-(pyrimidin-2-yl)propyl)amino)-2H-pyrazolo[4,3-b]pyridin-5 (4H)-one]",3.62,0.743,1250
"CCn1cc2[nH]c(=O)c(-c3nc4c(OC)cccc4[nH]3)c(N[C@@H](C)c3ncccn3)c2n1 [Compound 32, (S)-2-ethyl-6-(4-methoxy-1H-benzo[d]imidazol-2-yl)-7-((1-(pyrimidin-2-yl)ethyl)amino)-2H-pyrazolo[4,3-b]pyridin-5 (4H)-one]",5.45,2.03,1490
"CCn1cc2[nH]c(=O)c(-c3nc4c(F)c(OC)c(OC)cc4[nH]3)c(N[C@@H](C)c3ncccn3)c2n1 [Compound 41, (S)-2-ethyl-6-(4-fluoro-5,6-dimethoxy-1H-benzo[d]imidazol-2-yl)-7-((1-(pyrimidin-2-yl)-ethyl)amino)-2H-pyrazolo[4,3-b]pyridin-5 (4H)-one]",3.8,1.11,2280

# Continued by falling IC50 [1], values first:
IC50 [1] [nM],IC50 [2] [nM],Structure (SMILES),IC50 [3] [nM]
3.1,1.17,"CCC(Nc1c(-c2nc3cc(OC)c(OC)cc3[nH]2)c(=O)[nH]c2cn(CC)nc12)c1ncccn1 (single isomer, unassigned) [Compound 44, (S*)-6-(5,6-dimethoxy-1H-benzo[d]imidazol-2-yl)-2-ethyl-7-((1-(pyrimidin-2-yl)propyl)-amino)-2H-pyrazolo[4,3-b]pyridin-5 (4H)-one]",2300
2.88,0.791,"COc1cc(F)c2nc(-c3c(N[C@@H](C)c4ncccn4)c4nn(C)cc4[nH]c3=O)[nH]c2c1 [Compound 2, (S)-6-(4-fluoro-6-methoxy-1H-benzo[d]imidazol-2-yl)-2-methyl-7-((1-(pyrimidin-2-yl)-ethyl)amino)-2H-pyrazolo[4,3-b]pyridin-5 (4H)-one]",2380
2.44,0.566,"COc1cc2nc(-c3c(NC(c4ncccn4)C4CC4)c4nn(C)cc4[nH]c3=O)[nH]c2cc1OC (single isomer, unassigned) [Compound 46, (S*)-7-((cyclopropyl(pyrimidin-2-yl)methyl)amino)-6-(5,6-dimethoxy-1H-benzo[d]-imidazol-2-yl)-2-methyl-2H-pyrazolo[4,3-b]pyridin-5 (4H)-one]",682
2.25,0.503,"COCCOc1cc2[nH]c(-c3c(NC(c4ncccn4)C(C)C)c4nn(C)cc4[nH]c3=O)nc2cc1OC (single isomer, unassigned) [Compound 36, (S*)-6-(5-methoxy-6-(2-methoxyethoxy)-1H-benzo[d]imidazol-2-yl)-2-methyl-7-((2-methyl-1-(pyrimidin-2-yl)propyl)amino)-2H-pyrazolo[4,3-b]pyridin-5 (4H)-one]",757
1.89,0.517,"COc1cc(OC)c2nc(-c3c(N[C@@H](C)c4ncccn4)c4nn(C)cc4[nH]c3=O)[nH]c2c1 [Compound 29, (S)-6-(4,6-Dimethoxy-1H-benzo[d]imidazol-2-yl)-2-methyl-7-((1-(pyrimidin-2-yl)ethyl)-amino)-2H-pyrazolo[4,3-b]pyridin-5 (4H)-one]",809
1.83,0.673,"CCn1cc2[nH]c(=O)c(-c3nc4cc(OC)c(OC)cc4[nH]3)c(N[C@@H](C)c3ncccn3)c2n1 [Compound 6, (S)-6-(5,6-Dimethoxy-1H-benzo[d]imidazol-2-yl)-2-ethyl-7-((1-(pyrimidin-2-yl)ethyl)-amino)-2H-pyrazolo[4,3-b]pyridin-5 (4H)-one]",800
1.67,0.361,"COc1cnc2nc(-c3c(N[C@@H](C)c4ncccn4)c4nn(C)cc4[nH]c3=O)[nH]c2c1 [Compound 3, (S)-6-(6-methoxy-1H-imidazo[4,5-b]pyridin-2-yl)-2-methyl-7-((1-(pyrimidin-2-yl)-ethyl)amino)-2H-pyrazolo[4,3-b]pyridin-5 (4H)-one]",776
1.15,0.376,"CCOc1cc2[nH]c(-c3c(N[C@@H](C)c4ncccn4)c4nn(CC)cc4[nH]c3=O)nc2cc1OC [Compound 8, (S)-6-(6-ethoxy-5-methoxy-1H-benzo[d]imidazol-2-yl)-2-ethyl-7-((1-(pyrimidin-2-yl)-ethyl)amino)-2H-pyrazolo[4,3-b]pyridin-5 (4H)-one]",766
1.13,0.414,"COc1cc2[nH]c(-c3c(N[C@@H](C)c4ncccn4)c4nn(C)cc4[nH]c3=O)nc2cn1 [Compound 30, (S)-6-(6-methoxy-1H-imidazo[4,5-c]pyridin-2-yl)-2-methyl-7-((1-(pyrimidin-2-yl)ethyl)-amino)-2H-pyrazolo[4,3-b]pyridin-5 (4H)-one]",1200
